Measurements: the NIST ThermoML archive (doi:10.1016/j.jct.2015.08.014)
± gives the expanded uncertainty stated by the source.

Experiment: xn = mol fraction of the nth substance listed
Settings: 100 kPa, Liquid; for electrical conductivity: Alternating current cell with electrodes; for mass density: Vibrating tube method; for viscosity: Capillary tube (Ostwald / Ubbelohde) method

CCCC[N+]1(C)CCCC1.N#CN=C=[N-] [1-butyl-1-methylpyrrolidinium dicyanamide] + O=C1CCCO1
Settings | electrical conductivity [S/m]
303.15 K, Frequency=0.00857143 MHz, x1 = 0.2493 | 2.86 ± 0.029
303.15 K, Frequency=0.00857143 MHz, x1 = 0.3029 | 2.79 ± 0.028
303.15 K, Frequency=0.00857143 MHz, x1 = 0.3845 | 2.62 ± 0.026
303.15 K, Frequency=0.00857143 MHz, x1 = 0.4985 | 2.33 ± 0.024
303.15 K, Frequency=0.00857143 MHz, x1 = 0.6954 | 1.913 ± 0.019
303.15 K, Frequency=0.00857143 MHz, x1 = 0.9013 | 1.609 ± 0.016
303.15 K, Frequency=0.00857143 MHz, x1 = 1 | 1.527 ± 0.015
303.15 K, Frequency=0.00892857 MHz, x1 = 0.0463 | 1.58 ± 0.028
303.15 K, Frequency=0.00892857 MHz, x1 = 0.0987 | 2.38 ± 0.03
303.15 K, Frequency=0.00892857 MHz, x1 = 0.1449 | 2.71 ± 0.029
303.15 K, Frequency=0.00892857 MHz, x1 = 0.1859 | 2.902 ± 0.029
303.15 K, Frequency=0.00892857 MHz, x1 = 0.2493 | 2.86 ± 0.029
303.15 K, Frequency=0.00892857 MHz, x1 = 0.3029 | 2.79 ± 0.028
303.15 K, Frequency=0.00892857 MHz, x1 = 0.3845 | 2.62 ± 0.026
303.15 K, Frequency=0.00892857 MHz, x1 = 0.4985 | 2.33 ± 0.024
303.15 K, Frequency=0.00892857 MHz, x1 = 0.6954 | 1.913 ± 0.019
303.15 K, Frequency=0.00892857 MHz, x1 = 0.9013 | 1.609 ± 0.016
303.15 K, Frequency=0.00892857 MHz, x1 = 1 | 1.527 ± 0.015
303.15 K, Frequency=0.00961538 MHz, x1 = 0.0463 | 1.58 ± 0.028
303.15 K, Frequency=0.00961538 MHz, x1 = 0.0987 | 2.38 ± 0.03
303.15 K, Frequency=0.00961538 MHz, x1 = 0.1449 | 2.71 ± 0.029
303.15 K, Frequency=0.00961538 MHz, x1 = 0.1859 | 2.903 ± 0.029
303.15 K, Frequency=0.00961538 MHz, x1 = 0.2493 | 2.86 ± 0.029
303.15 K, Frequency=0.00961538 MHz, x1 = 0.3029 | 2.79 ± 0.028
303.15 K, Frequency=0.00961538 MHz, x1 = 0.3845 | 2.62 ± 0.026
303.15 K, Frequency=0.00961538 MHz, x1 = 0.4985 | 2.33 ± 0.024
303.15 K, Frequency=0.00961538 MHz, x1 = 0.6954 | 1.913 ± 0.019
303.15 K, Frequency=0.00961538 MHz, x1 = 0.9013 | 1.609 ± 0.016
303.15 K, Frequency=0.00961538 MHz, x1 = 1 | 1.527 ± 0.015
303.15 K, Frequency=0.01 MHz, x1 = 0.0463 | 1.58 ± 0.028
303.15 K, Frequency=0.01 MHz, x1 = 0.0987 | 2.38 ± 0.03
303.15 K, Frequency=0.01 MHz, x1 = 0.1449 | 2.71 ± 0.029
303.15 K, Frequency=0.01 MHz, x1 = 0.1859 | 2.903 ± 0.029
303.15 K, Frequency=0.01 MHz, x1 = 0.2493 | 2.86 ± 0.029
303.15 K, Frequency=0.01 MHz, x1 = 0.3029 | 2.79 ± 0.028
303.15 K, Frequency=0.01 MHz, x1 = 0.3845 | 2.62 ± 0.026
303.15 K, Frequency=0.01 MHz, x1 = 0.4985 | 2.33 ± 0.024
303.15 K, Frequency=0.01 MHz, x1 = 0.6954 | 1.913 ± 0.019
303.15 K, Frequency=0.01 MHz, x1 = 0.9013 | 1.609 ± 0.016
303.15 K, Frequency=0.01 MHz, x1 = 1 | 1.527 ± 0.015
313.15 K, Frequency=0.0005 MHz, x1 = 0.0463 | 1.78 ± 0.032
313.15 K, Frequency=0.0005 MHz, x1 = 0.0987 | 2.71 ± 0.034
313.15 K, Frequency=0.0005 MHz, x1 = 0.1449 | 3.13 ± 0.033
313.15 K, Frequency=0.0005 MHz, x1 = 0.1859 | 3.34 ± 0.034
313.15 K, Frequency=0.0005 MHz, x1 = 0.2493 | 3.35 ± 0.034
313.15 K, Frequency=0.0005 MHz, x1 = 0.3029 | 3.302 ± 0.033
313.15 K, Frequency=0.0005 MHz, x1 = 0.3845 | 3.15 ± 0.032
313.15 K, Frequency=0.0005 MHz, x1 = 0.4985 | 2.87 ± 0.029
313.15 K, Frequency=0.0005 MHz, x1 = 0.6954 | 2.421 ± 0.024
313.15 K, Frequency=0.0005 MHz, x1 = 0.9013 | 2.08 ± 0.021
313.15 K, Frequency=0.0005 MHz, x1 = 1 | 1.99 ± 0.02
313.15 K, Frequency=0.001 MHz, x1 = 0.0463 | 1.78 ± 0.032
313.15 K, Frequency=0.001 MHz, x1 = 0.0987 | 2.71 ± 0.034
313.15 K, Frequency=0.001 MHz, x1 = 0.1449 | 3.13 ± 0.033
313.15 K, Frequency=0.001 MHz, x1 = 0.1859 | 3.35 ± 0.034
313.15 K, Frequency=0.001 MHz, x1 = 0.2493 | 3.36 ± 0.034
313.15 K, Frequency=0.001 MHz, x1 = 0.3029 | 3.309 ± 0.033
313.15 K, Frequency=0.001 MHz, x1 = 0.3845 | 3.15 ± 0.032
313.15 K, Frequency=0.001 MHz, x1 = 0.4985 | 2.87 ± 0.029
313.15 K, Frequency=0.001 MHz, x1 = 0.6954 | 2.422 ± 0.024
313.15 K, Frequency=0.001 MHz, x1 = 0.9013 | 2.08 ± 0.021
313.15 K, Frequency=0.001 MHz, x1 = 1 | 2 ± 0.02
313.15 K, Frequency=0.0015 MHz, x1 = 0.0463 | 1.79 ± 0.032
313.15 K, Frequency=0.0015 MHz, x1 = 0.0987 | 2.72 ± 0.034
313.15 K, Frequency=0.0015 MHz, x1 = 0.1449 | 3.13 ± 0.033
313.15 K, Frequency=0.0015 MHz, x1 = 0.1859 | 3.35 ± 0.034
313.15 K, Frequency=0.0015 MHz, x1 = 0.2493 | 3.36 ± 0.034
313.15 K, Frequency=0.0015 MHz, x1 = 0.3029 | 3.312 ± 0.033
313.15 K, Frequency=0.0015 MHz, x1 = 0.3845 | 3.16 ± 0.032
313.15 K, Frequency=0.0015 MHz, x1 = 0.4985 | 2.87 ± 0.029
313.15 K, Frequency=0.0015 MHz, x1 = 0.6954 | 2.424 ± 0.024
313.15 K, Frequency=0.0015 MHz, x1 = 0.9013 | 2.09 ± 0.021
313.15 K, Frequency=0.0015 MHz, x1 = 1 | 2 ± 0.02
313.15 K, Frequency=0.002 MHz, x1 = 0.0463 | 1.79 ± 0.032
313.15 K, Frequency=0.002 MHz, x1 = 0.0987 | 2.72 ± 0.034
313.15 K, Frequency=0.002 MHz, x1 = 0.1449 | 3.13 ± 0.033
313.15 K, Frequency=0.002 MHz, x1 = 0.1859 | 3.36 ± 0.034
313.15 K, Frequency=0.002 MHz, x1 = 0.2493 | 3.36 ± 0.034
313.15 K, Frequency=0.002 MHz, x1 = 0.3029 | 3.314 ± 0.033
313.15 K, Frequency=0.002 MHz, x1 = 0.3845 | 3.16 ± 0.032
313.15 K, Frequency=0.002 MHz, x1 = 0.4985 | 2.87 ± 0.029
313.15 K, Frequency=0.002 MHz, x1 = 0.6954 | 2.424 ± 0.024
313.15 K, Frequency=0.002 MHz, x1 = 0.9013 | 2.09 ± 0.021

Settings | electrical conductivity, 313.15 K [S/m] | mass density, 303.15 K [kg/m3] | viscosity, 313.15 K [mPa·s]
x1 = 0.0463 | 1.79 ± 0.032 | – | –
x1 = 0.0987 | 2.73 ± 0.034 | 1099.02 ± 8.8 | 2.18 ± 0.05
x1 = 0.1449 | 3.13 ± 0.033 | – | –
x1 = 0.1859 | 3.37 ± 0.034 | 1083.47 ± 8.7 | 3.04 ± 0.07
x1 = 0.2493 | 3.36 ± 0.034 | – | –
x1 = 0.3029 | 3.319 ± 0.033 | 1066.18 ± 8.5 | 4.52 ± 0.1
x1 = 0.3845 | 3.16 ± 0.032 | – | –
x1 = 0.4985 | 2.88 ± 0.029 | 1044.28 ± 8.4 | 7.85 ± 0.17
x1 = 0.6954 | 2.426 ± 0.024 | 1028.17 ± 8.2 | 12.31 ± 0.27
x1 = 0.9013 | 2.09 ± 0.021 | 1015.57 ± 8.2 | 18.01 ± 0.41
x1 = 1 | 2 ± 0.02 | 1010.64 ± 8.1 | 21.07 ± 0.48
